Tests used:
head, forehead and neck = assay: Half-head wash with ethyl nicotinate shampoo against placebo shampoo (erythema meter, Cyclops pyrometer, sensations); assay type: in vivo, human
Description: EXPERIMENTS WITH ETHYL NICOTINATE ESTER IN SHAMPOO Five subjects washed one side of the head, forehead and neck with a shampoo the same as in Example 5 but containing a varying level of ethyl nicotinate for a period ranging from one to five minutes, whilst the other side was washed with a placebo shampoo of corresponding composition. The changes occurring on the various symmetrical sites around the head were assessed with the erythema meter and a "Cyclops" pyrometer in sequence. The readings were continued for between 45 minutes and one hour.

hair growth = assay: Observation of hair growth with ethyl nicotinate in a shampoo; assay type: in vivo; conditions: included in a shampoo, in the absence of any other hair growth promoter

SMILES: CCOC(=O)c1cccnc1 [EtNic, ethyl nicotinate]
- temperature (head, forehead and neck; active sites against placebo sites, Cyclops pyrometer, wash of one to five minutes): either rose or did not fall so low as the placebo sites
- redness (head, forehead and neck; active sites against placebo sites, erythema meter, wash of one to five minutes): increased the redness
- longer term sensations of a pleasant nature, duration after treatment (head, forehead and neck; crown of the head): up to two
- hair growth (hair growth): promote hair growth

Source: patent EP0489581A2, “Cosmetic composition” (UNILEVER PLC, priority 1990, dated 1992)
